# Tests used:
# [1] = target: T1, purified CD26 (Homo sapiens, UniProt P27487); experiment: Conversion of peptide prodrugs to parent compound by purified CD26 (HPLC); assay type: biochemical; conditions: 50 μM, 5.7 mUnits purified CD26, 37° C.
# T1 construct: made in house
# [2] = Conversion of prodrugs to parent compound by bovine serum diluted in PBS; assay type: in vitro ADME; conditions: 50 μM; 0.5-5% BS in PBS; 3, 6, 24 hr; 37° C.
# Experimental: (§1) Human and bovine serum were incubated for 3 hr, 6 hr and/or 24 hr at 37° C. in the presence of 50 μM CAM-405. The sera were diluted in PBS at a final concentration of 0.5, 1, 2.5 or 5%. […] The longer the incubation time, and the higher the serum concentration used, the faster the conversion of CAM-405 to CAM-212 occurred (FIG. 4). As also noted for CD26, HS- and BS-catalysed reaction slowed down in function of time, and was not linearly proportional with serum concentration (FIG. 4). These findings provide again evidence for a pronounced feed-back inhibition of dipeptidyl-peptidase activity in human and bovine serum by the released Val-Pro dipeptide. HS was more efficient in converting CAM-405 to CAM-212 than BS (FIG. 4). Since 1% HS is able to hydrolyse ˜20% of 50 μM CAM-405 within 3 hrs of incubation, it could be calculated that undiluted serum would have been able to convert this prodrug amount to its parent compound at a hundred fold higher speed, that is, within 1.8 min, provided that no feed-back inhibition would have occurred (as expected in the intact organism where release of Pro-Val would immediately result in disappearance from the plasma due to several mechanisms including organ uptake, renal excretion, etc.).
# (§2) Ten percent BS or HS converted 40 to 70% of PI-2 to PI-1 in one hour (FIG. 10). Two percent BS and HS converted PI-2 to PI-1 by 8% and 25%, respectively. After 4 hrs, 35% and 95% of compound was hydrolyzed by BS and HS, respectively (FIG. 11).
# (§3) The TSAO derivatives depicted in FIG. 1 can be synthesised as described below. GlyPro-pNA (GP-pNA), Diprotin A and Val-Pro were purchased from Sigma-Aldrich (Bornem, Belgium). CD26 was purified as described before [De Meester et al. J. Immunol. Methods (1996), 189: 99-105]. Foetal bovine serum (FBS) was obtained from Integro (Dieren, The Netherlands). Human serum represented a pooled serum that was derived from 10 healthy volunteers (blood donors). Human lymphocyte CEM cells were derived from the ATCC (Rockville, Md.).
# [3] = Conversion of prodrugs to parent compound by human serum diluted in PBS; assay type: in vitro ADME
# Experimental: as §1
# Only a very limited amount of NAP-TSAO (but not D-Pro-NAP-TSAO) had been detected (FIG. 6).
# as §2, §3
# [4] = target: T1, purified CD26; experiment: Conversion of peptide prodrugs to parent compound by purified CD26 (HPLC); assay type: biochemical
# Experimental: To reveal whether CD26 recognizes such synthetic di/tripeptide derivatives of lipophilic nucleoside analogues as a substrate, 50 μM CAM-405 or CAM-431 was exposed to 5.7 mUnits of purified CD26, and the conversion of CAM-405 or CAM-431 to respectively CAM-212 or CAM-403 (Val-NAP-TSAO) was recorded in function of incubation time by HPLC analysis. […] Within the first 10 min of the reaction, at least 20% of CAM-405 had been converted to CAM-212, fifty percent of the TSAO dipeptide derivative was converted to CAM-212 within 30 min of the reaction and ˜67% of CAM-405 was hydrolyse after 60 min. Thus, the reaction rate started already to slow down after the first 10 min of drug exposure (FIG. 2). Most likely, the release of the reaction product Val-Pro dose-dependently feed-back inhibited the CD26-catalysed dipeptidyl-peptidase reaction. […] Thus, in the presence of 50 μM CAM-405, hydrolysis of 50% of CAM-405 to CAM-212 results in the appearance of 25 μM Val-Pro, that is a concentration that (feed-back) inhibits the CD26 reaction by ˜50%. These findings explain why the CD26-catalysed reaction levels-off shortly after the start of the exposure of the drug to CD26. […] Thus, a further level of modulation of the rate of prodrug release can be introduced by choosing a dipeptide moiety that competes for the active site of CD26, until the dipeptide has diffused from the tissue wherein CD26 is present. The inhibitory activity of any dipeptide can be evaluated by the above mentioned assay.
# The conversion rate in function of time is given in Table 1 for NAP-TSAO-dipeptides where the dipeptide consists of: Val-Pro, Val-D-Pro, Asp-Pro, Lys-Pro, Tyr-Pro, Gly-Pro, Val-4-hydroxyPro, Gly-3,4-dihydroxyPro, but also Val-Gly, Val-Ala, Val-Leu and Val-Phe. It is clear that the conversion rate to the parent NAP-TSAO differs depending the nature of the dipeptide. Also, when the terminal amine of the dipeptide has been blocked by a lipophilic group (i.e. methyl, Z or Fmoc), the prodrug looses measurable substrate activity for CD26.
# The conversion rate in function of time is given in Table 2 for tetrapeptide NAP-TSAO compounds where the tetrapeptide consists of: Val-Pro-Val-Pro [SEQ ID no:6] (CAM 467), Val-Ala-Val-Pro [SEQ ID no:7] (CAM 473) or Lys-Pro-Asp-Pro [SEQ ID no:8] (CAM 477). […] Only traces of dipeptide prodrug (CAM 405) is seen as intermediate in the conversion of the tetrapeptide CAM 473 to NAP-TSAO.
# (§4) All enzyme activity assays were performed in Eppendorf tubes on a heating block at 37° C. To each tube were added 32 μl CD26 (at a final concentration of 1.5 milliUnits) or 10 μl foetal bovine serum (BS) (final concentration: 2.5% BS in PBS; preheated at 56° C. for 30 min) or 10 μl human serum (HS) (final concentration: 2.5% HS in PBS), 40 μl of appropriate concentrations of inhibitor (Diprotin A) solution in PBS (for the exact concentrations, see the legend to FIG. 5), CAM-405 (the substrate of the reaction) at […] (final concentration) and PBS to reach a total volume of 400 μl. The pH of the reaction mixture was 7.5, which is virtually identical to the physiological pH of plasma. The reaction was started by the addition of the enzyme or serum and carried out at 37° C. After 5 hr, 100 μl reaction mixture was taken from the Eppendorf tube and added to 200 μl cold methanol to precipitate the proteins. After 10 min standing on ice, the contents of the tubes were centrifuged and the supernatants analysed by HPLC on a reverse phase column (RP-8, Merck Laboratories). CAM-405 was separated from CAM-212 (the product of the reaction) by a gradient of 50 mM sodium phosphate+5 mM heptane sulfonic acid pH 3.2 (Buffer A) and acetonitrile (Buffer B) as follows: Buffer A: 98%+2% Buffer B, 2 min; linear gradient to 20% Buffer. […]
# [5] = tested on: T-lymphocytic CEM cell suspensions; experiment: Conversion of Val-Pro-NAP-TSAO to NAP-TSAO by CEM cell suspensions; assay type: cell-based, human; conditions: ten million CEM cells in 200 μl PBS; 3 hrs; 37° C.
# Experimental: The conversion of Val-Pro-NAP-TSAO (CAM-405) to NAP-TSAO (CAM-212) also efficiently occurred by carefully washed T-lymphocytic CEM cell suspensions in PBS. Ten million CEM cells suspended in 200 μl PBS hydrolysed the Val-Pro moiety from CAM-405 by 65% within 3 hrs of incubation at 37° C. This amount of hydrolysis was found both in the PBS supernatant and in the CEM cell extracts. Presumably, CD26 present in the cell membrane of CEM cells had cleaved-off the Val-Pro from CAM-405 after which both truncated and intact prodrug had been taken up by the lymphocytic cells to an equal extent.
# as §3
# [6] = Effect of CD26 inhibitor on conversion of CAM-405 to CAM-212 by human serum; assay type: biochemical; conditions: 2.5% HS in PBS, 50 μM CAM-405
# Experimental: (§5) CD26-catalysed CAM-405 conversion to CAM-212 was recorded in the absence or presence of the CD26 inhibitor diprotin A (FIG. 5). […] These observations point to CD26 as the main and predominant enzyme responsible in HS and BS to remove the dipeptide part from the lipophilic NAP-TSAO dipeptide nucleoside analogue.
# as §4, with “Laboratories).” for “Laboratories). CAM-405 was separated from CAM-212 (the product of the reaction) by a gradient of 50 mM sodium phosphate+5 mM heptane sulfonic acid pH 3.2 (Buffer A) and acetonitrile (Buffer B) as follows: Buffer A: 98%+2% Buffer B, 2 min; linear gradient to 20% Buffer.”
# [7] = Effect of CD26 inhibitor on conversion of CAM-405 to CAM-212 by bovine serum; assay type: biochemical; conditions: 2.5% BS in PBS, 50 μM CAM-405
# Experimental: as §5
# as §4, with “Laboratories).” for “Laboratories). CAM-405 was separated from CAM-212 (the product of the reaction) by a gradient of 50 mM sodium phosphate+5 mM heptane sulfonic acid pH 3.2 (Buffer A) and acetonitrile (Buffer B) as follows: Buffer A: 98%+2% Buffer B, 2 min; linear gradient to 20% Buffer.”
# [8] = target: T1, purified CD26; experiment: Effect of CD26 inhibitor on conversion of CAM-405 to CAM-212 by purified CD26; assay type: biochemical; conditions: CD26 1.5 mUnits, 50 μM CAM-405
# Experimental: as §5
# as §4, with “Laboratories).” for “Laboratories). CAM-405 was separated from CAM-212 (the product of the reaction) by a gradient of 50 mM sodium phosphate+5 mM heptane sulfonic acid pH 3.2 (Buffer A) and acetonitrile (Buffer B) as follows: Buffer A: 98%+2% Buffer B, 2 min; linear gradient to 20% Buffer.”
# T1 sequence (P27487 whole entry): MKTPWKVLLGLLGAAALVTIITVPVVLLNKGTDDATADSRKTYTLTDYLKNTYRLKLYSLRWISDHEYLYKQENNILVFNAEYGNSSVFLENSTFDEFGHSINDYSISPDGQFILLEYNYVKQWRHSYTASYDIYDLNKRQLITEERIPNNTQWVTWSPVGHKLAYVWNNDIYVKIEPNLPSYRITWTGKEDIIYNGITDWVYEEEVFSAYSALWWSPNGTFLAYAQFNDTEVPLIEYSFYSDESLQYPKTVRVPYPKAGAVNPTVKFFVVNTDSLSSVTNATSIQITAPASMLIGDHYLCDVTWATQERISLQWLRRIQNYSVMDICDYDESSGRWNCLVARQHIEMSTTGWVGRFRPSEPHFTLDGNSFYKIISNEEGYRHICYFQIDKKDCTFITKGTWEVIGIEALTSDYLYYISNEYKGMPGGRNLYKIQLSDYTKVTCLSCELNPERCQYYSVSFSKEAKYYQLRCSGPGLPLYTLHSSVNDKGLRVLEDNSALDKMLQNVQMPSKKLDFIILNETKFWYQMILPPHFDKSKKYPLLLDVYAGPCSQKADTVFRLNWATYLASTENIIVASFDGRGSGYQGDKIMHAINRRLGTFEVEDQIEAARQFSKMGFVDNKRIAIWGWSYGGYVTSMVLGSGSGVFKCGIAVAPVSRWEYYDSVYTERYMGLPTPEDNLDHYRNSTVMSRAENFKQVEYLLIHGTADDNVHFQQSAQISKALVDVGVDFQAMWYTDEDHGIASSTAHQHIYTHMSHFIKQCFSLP
compound,measurement,setting,value
"Cc1cn(C2OC(CO[Si](C)(C)C(C)(C)C)C3(OS(=O)(=O)C=C3N)C2O[Si](C)(C)C(C)(C)C)c(=O)n(CCCNC(=O)[C@@H]2CCCN2C(=O)[C@@H](N)C(C)C)c1=O (stereo partly drawn) [CAM-405, H-Val-Pro-NAP-TSAO]","Hydrolysis of CAM-405, after 60 min",[1],~67%
same,"Conversion of CAM-405 to CAM-212 by bovine serum, in words",[2],efficiently converted
same,Calculated time for undiluted serum to convert this prodrug amount to parent compound,"[3]; 10 μM, extrapolated from 1% human serum",less than 1.8 min
same,"Conversion of CAM-405 to CAM-212 by human serum, in words","[3]; 50 μM, 0.5-5% HS in PBS, 3, 6, 24 hr, 37° C.",efficiently converted
same,Hydrolysis of CAM-405 by 1% human serum within 3 hrs,"[3]; 50 μM, 1% HS in PBS, 3 hrs, 37° C.",~20%
same,Calculated time for undiluted serum to convert this prodrug amount to parent compound,"[3]; undiluted human serum, extrapolated, provided no feed-back inhibition",≤ 1.8 min
same,"Conversion of CAM-405 to CAM-212, first 10 min","[4]; 50 μM, 5.7 mUnits purified CD26, 37° C., 10 min",at least 20%
same,"Conversion of CAM-405 to CAM-212, within 30 min","[4]; 50 μM, 5.7 mUnits purified CD26, 37° C., 30 min",fifty
same,"Conversion % to parent compound by purified CD26, 1 h","[4]; Table 1, purified CD26 1.5 mUnits, 1 h",37%
same,"Conversion % to parent compound by purified CD26, 4 h","[4]; Table 1, purified CD26 1.5 mUnits, 4 h",62%
same,"Conversion % to parent compound by purified CD26, 24 h","[4]; Table 1, purified CD26 1.5 mUnits, 24 h",61%
same,"% conversion to parent compound by purified CD26, 1 h","[4]; Table 2, purified CD26 1.5 mUnits, 1 h",37%
same,"% conversion to parent compound by purified CD26, 4 h","[4]; Table 2, purified CD26 1.5 mUnits, 4 h",62%
same,"% conversion to parent compound by purified CD26, 24 h","[4]; Table 2, purified CD26 1.5 mUnits, 24 h",61%
same,Hydrolysis of the Val-Pro moiety by CEM cells,[5],65%
Diprotin A,Suppression of conversion of CAM-405 to CAM-212 by HS at 100 μM inhibitor,[6]; 100 μM,> 50%
same,Prevention of conversion of CAM-405 to CAM-212 in HS at 1000 μM inhibitor,[6]; 1000 μM,nearly complete prevention
same,Suppression of conversion of CAM-405 to CAM-212 by BS at 100 μM inhibitor,[7]; 100 μM,> 50%
same,Prevention of conversion of CAM-405 to CAM-212 in BS at 1000 μM inhibitor,[7]; 1000 μM,nearly complete prevention
same,Suppression of conversion of CAM-405 to CAM-212 by purified CD26 at 100 μM inhibitor,[8]; 100 μM,> 50%
same,Prevention of conversion of CAM-405 to CAM-212 by purified CD26 at 1000 μM inhibitor,[8]; 1000 μM,nearly complete prevention

# From patent US8236756B2, “Prodrugs cleavable by CD26” (Consejo Superior de Investigaciones Clentificas (CSIC), priority 2003, dated 2012)
